Source: ChEMBL document CHEMBL5321293, “Discovery of ERD-3111 as a Potent and Orally Efficacious Estrogen Receptor PROTAC Degrader with Strong Antitumor Activity” (J Med Chem, 2023)
Active and inactive are the calls of the source. The rule behind the calls is not given here.

Legend:
MCF7 [1] = assay: Antitumor activity against human MCF7 cells harboring ESR1 Y537S mutant xenografted in CB17 SCID mouse assessed as tumor growth inhibition at 30 mg/kg, po qd for 4 weeks and measured 30 days post last dose; assay type: functional; settings: MCF7, 672 h, read-out: TGI
[2] = Drug concentration in tumor of CB17 SCID mouse xenografted with human MCF7 cells harboring wild type ESR1 at 10 mg/kg, po qd for 3 days and measured after 24 hrs last dose by LC-MS/MS analysis; assay type: ADME, organism-based, Neoplasm; settings: time 3 day, read-out: Ct
[3] = Half life in Beagle dog at 1 mg/kg, po and measured upto 24 hrs by LC-MS/MS analysis; assay type: ADME, organism-based, Canis lupus familiaris; settings: in vivo
MCF7 [4] = assay: Antitumor activity against human MCF7 cells harboring wild type ESR1 xenografted in CB17 SCID mouse assessed as tumor growth inhibition at 30 mg/kg, po qd for 5 weeks and measured 3 weeks post last dose; assay type: functional; settings: MCF7, 840 h, read-out: TGI
MCF7 [5] = assay: Antitumor activity against human MCF7 cells harboring ESR1 D538G mutant xenografted in CB17 SCID mouse assessed as tumor growth inhibition at 30 mg/kg, po qd for 4 weeks and measured 1 week post last dose; assay type: functional, organism-based
[6] = Volume of distribution at steady state in Sprague-Dawley rat at 1 mg/kg, iv and measured upto 24 hrs by LC-MS/MS analysis; settings: in vivo
MCF7 [7] = assay: Antitumor activity against human MCF7 cells harboring ESR1 D538G mutant xenografted in CB17 SCID mouse assessed as tumor growth inhibition at 30 mg/kg, po qd for 4 weeks; assay type: functional; settings: MCF7, 672 h, read-out: TGI
[8] = Downregulation of ERalpha protein expression in tumor of CB17 SCID mouse xenografted with human MCF7 cells harboring ESR1 D538G mutant at 10 mg/kg, po qd for 3 days and measured after 6 hrs last dose by Western blot analysis relative to control; assay type: functional; settings: time 3 day
[9] = Downregulation of ERalpha protein expression in tumor of CB17 SCID mouse xenografted with human MCF7 cells harboring ESR1 Y537S mutant at 10 mg/kg, po qd for 3 days and measured after 6 hrs last dose by Western blot analysis relative to control; assay type: functional; settings: time 3 day
[10] = Drug concentration in tumor of CB17 SCID mouse xenografted with human MCF7 cells harboring ESR1 Y537S mutant at 30 mg/kg, po qd for 3 days and measured after 6 hrs last dose by LC-MS/MS analysis; assay type: ADME, organism-based, Neoplasm; settings: time 3 day, read-out: Ct
Cytochrome P450 3A4 = Cytochrome P450 3A4 (Homo sapiens, UniProt P08684); assay: Inhibition of CYP3A4 in human liver microsomes using testosterone as substrate preincubated for 5 mins followed by NADPH addition and measured after 10 mins by LC-MS/MS analysis; assay type: ADME, Microsome
Chain of Cytochrome P450 3A4 (P08684 whole entry): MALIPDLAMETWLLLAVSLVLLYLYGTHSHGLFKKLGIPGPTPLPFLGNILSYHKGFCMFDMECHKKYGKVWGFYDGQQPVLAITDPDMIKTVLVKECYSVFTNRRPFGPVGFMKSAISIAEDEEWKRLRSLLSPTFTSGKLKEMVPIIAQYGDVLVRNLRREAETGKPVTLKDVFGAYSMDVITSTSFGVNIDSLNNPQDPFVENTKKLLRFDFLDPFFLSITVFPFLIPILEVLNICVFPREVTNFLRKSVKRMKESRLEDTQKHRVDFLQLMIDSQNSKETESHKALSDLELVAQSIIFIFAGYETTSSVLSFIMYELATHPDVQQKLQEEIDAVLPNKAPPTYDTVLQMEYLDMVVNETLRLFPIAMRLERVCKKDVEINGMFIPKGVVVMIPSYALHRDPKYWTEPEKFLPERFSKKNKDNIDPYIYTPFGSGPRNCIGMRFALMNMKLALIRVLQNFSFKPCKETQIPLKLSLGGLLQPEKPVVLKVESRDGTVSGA

[11] = Drug concentration in plasma of CB17 SCID mouse xenografted with human MCF7 cells harboring wild type ESR1 at 30 mg/kg, po qd for 3 days and measured after 6 hrs last dose by LC-MS/MS analysis; assay type: ADME, organism-based; settings: time 3 day
[12] = Drug concentration in plasma of CB17 SCID mouse xenografted with human MCF7 cells harboring ESR1 Y537S mutant at 30 mg/kg, po qd for 3 days and measured after 6 hrs last dose by LC-MS/MS analysis; assay type: ADME, organism-based; settings: time 3 day
[13] = Metabolic stability in rat liver microsomes assessed as half life at 1 uM and measured upto 60 mins in presence of NADPH by LC-MS/MS analysis; assay type: ADME, Microsome
MCF7 [14] = assay: Antitumor activity against human MCF7 cells harboring ESR1 D538G mutant xenografted in CB17 SCID mouse assessed as tumor growth inhibition at 10 mg/kg, po qd for 4 weeks; assay type: functional; settings: MCF7, 672 h, read-out: TGI
[15] = Toxicity in CB17 SCID mouse xenografted with human MCF7 cells harboring ESR1 D538G mutant assessed as body weight change at 30 mg/kg,po qd for 4 weeks; assay type: organism-based; settings: in vivo, 672 h
Cytochrome P450 2D6 = Cytochrome P450 2D6 (Homo sapiens, UniProt P10635); assay: Inhibition of CYP2D6 in human liver microsomes preincubated for 5 mins in presence substrate followed by NADPH addition and measured after 10 mins by LC-MS/MS analysis; assay type: ADME, Microsome
Chain of Cytochrome P450 2D6 (P10635 whole entry): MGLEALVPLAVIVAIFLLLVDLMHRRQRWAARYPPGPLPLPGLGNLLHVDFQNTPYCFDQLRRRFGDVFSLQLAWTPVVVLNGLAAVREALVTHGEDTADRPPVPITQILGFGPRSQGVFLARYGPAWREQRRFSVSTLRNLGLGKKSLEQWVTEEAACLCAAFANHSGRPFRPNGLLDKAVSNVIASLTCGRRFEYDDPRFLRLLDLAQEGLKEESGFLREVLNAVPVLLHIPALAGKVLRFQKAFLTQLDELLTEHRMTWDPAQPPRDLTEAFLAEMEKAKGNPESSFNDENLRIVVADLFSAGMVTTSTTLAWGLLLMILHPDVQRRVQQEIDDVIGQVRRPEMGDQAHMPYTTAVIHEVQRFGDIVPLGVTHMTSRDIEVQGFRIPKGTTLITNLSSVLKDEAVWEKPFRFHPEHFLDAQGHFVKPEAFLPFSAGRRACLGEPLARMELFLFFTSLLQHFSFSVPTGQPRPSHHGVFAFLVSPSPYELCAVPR

Cytochrome P450 2C19 = Cytochrome P450 2C19 (Homo sapiens, UniProt P33261); assay: Inhibition of CYP2C19 in human liver microsomes preincubated for 5 mins in presence substrate followed by NADPH addition and measured after 10 mins by LC-MS/MS analysis; assay type: ADME, Microsome
Chain of Cytochrome P450 2C19 (P33261 whole entry): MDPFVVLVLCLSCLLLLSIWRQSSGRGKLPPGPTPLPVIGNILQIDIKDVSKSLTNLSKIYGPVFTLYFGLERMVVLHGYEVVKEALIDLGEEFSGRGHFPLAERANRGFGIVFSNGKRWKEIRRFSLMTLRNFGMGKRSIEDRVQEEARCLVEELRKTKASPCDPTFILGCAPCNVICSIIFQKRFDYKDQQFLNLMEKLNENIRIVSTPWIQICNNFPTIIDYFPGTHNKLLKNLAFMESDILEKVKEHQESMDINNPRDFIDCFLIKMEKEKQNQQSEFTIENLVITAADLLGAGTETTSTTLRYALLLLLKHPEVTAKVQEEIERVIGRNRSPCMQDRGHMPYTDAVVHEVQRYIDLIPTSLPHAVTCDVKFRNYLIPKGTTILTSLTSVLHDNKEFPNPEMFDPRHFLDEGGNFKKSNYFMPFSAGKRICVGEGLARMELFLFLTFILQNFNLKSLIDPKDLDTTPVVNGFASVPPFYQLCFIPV

[16] = Downregulation of ERalpha protein expression in tumor of CB17 SCID mouse xenografted with human MCF7 cells harboring wild type ESR1 at 30 mg/kg, po qd for 3 days and measured after 24 hrs last dose by Western blot analysis relative to control; assay type: functional; settings: time 3 day
MCF7 [17] = assay: Antitumor activity against human MCF7 cells harboring wild type ESR1 xenografted in CB17 SCID mouse assessed as tumor growth inhibition at 10 mg/kg, po qd for 5 weeks; assay type: functional; settings: MCF7, 840 h, read-out: TGI
Cytochrome P450 2C8 = target: T1, Cytochrome P450 2C8 (Homo sapiens, UniProt P10632); assay: Inhibition of CYP2C8 in human liver microsomes preincubated for 5 mins in presence substrate followed by NADPH addition and measured after 10 mins by LC-MS/MS analysis; assay type: ADME, Microsome
T1 sequence (P10632 whole entry): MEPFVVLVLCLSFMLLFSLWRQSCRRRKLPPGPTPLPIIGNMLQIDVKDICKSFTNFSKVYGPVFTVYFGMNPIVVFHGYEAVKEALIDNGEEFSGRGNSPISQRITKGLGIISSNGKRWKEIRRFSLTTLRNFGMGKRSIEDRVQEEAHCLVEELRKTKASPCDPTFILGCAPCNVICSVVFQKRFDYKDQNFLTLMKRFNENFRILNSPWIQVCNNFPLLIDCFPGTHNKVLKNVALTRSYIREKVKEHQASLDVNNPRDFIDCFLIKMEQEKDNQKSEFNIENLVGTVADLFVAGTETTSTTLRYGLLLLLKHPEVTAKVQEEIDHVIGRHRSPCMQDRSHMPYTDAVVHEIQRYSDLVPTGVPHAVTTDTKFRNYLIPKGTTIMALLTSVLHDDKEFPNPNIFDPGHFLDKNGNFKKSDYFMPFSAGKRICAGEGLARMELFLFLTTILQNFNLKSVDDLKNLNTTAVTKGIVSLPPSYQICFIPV

in vivo = settings: Sprague-Dawley, rat, po, 3 mg/kg
[18] = Drug concentration in plasma of CB17 SCID mouse xenografted with human MCF7 cells harboring ESR1 Y537S mutant at 10 mg/kg, po qd for 3 days and measured after 6 hrs last dose by LC-MS/MS analysis; assay type: ADME, organism-based; settings: time 3 day
[19] = Drug concentration in plasma of CB17 SCID mouse xenografted with human MCF7 cells harboring wild type ESR1 at 30 mg/kg, po qd for 3 days and measured after 24 hrs last dose by LC-MS/MS analysis; assay type: ADME, organism-based; settings: time 3 day
[20] = Drug concentration in plasma of CB17 SCID mouse xenografted with human MCF7 cells harboring wild type ESR1 at 10 mg/kg, po qd for 3 days and measured after 24 hrs last dose by LC-MS/MS analysis; assay type: ADME, organism-based; settings: time 3 day
[21] = target: Protein cereblon/Estrogen receptor (Homo sapiens, UniProt P03372+Q96SW2); assay: Protac activity at human ERalpha in human T47D cells assessed as reduction in ERalpha protein level at 0.1 to 100 nM by Western blot analysis; assay type: cell-based; settings: dose 0.1-100 nM
Chain of Protein cereblon/Estrogen receptor (P03372 whole entry, looked up): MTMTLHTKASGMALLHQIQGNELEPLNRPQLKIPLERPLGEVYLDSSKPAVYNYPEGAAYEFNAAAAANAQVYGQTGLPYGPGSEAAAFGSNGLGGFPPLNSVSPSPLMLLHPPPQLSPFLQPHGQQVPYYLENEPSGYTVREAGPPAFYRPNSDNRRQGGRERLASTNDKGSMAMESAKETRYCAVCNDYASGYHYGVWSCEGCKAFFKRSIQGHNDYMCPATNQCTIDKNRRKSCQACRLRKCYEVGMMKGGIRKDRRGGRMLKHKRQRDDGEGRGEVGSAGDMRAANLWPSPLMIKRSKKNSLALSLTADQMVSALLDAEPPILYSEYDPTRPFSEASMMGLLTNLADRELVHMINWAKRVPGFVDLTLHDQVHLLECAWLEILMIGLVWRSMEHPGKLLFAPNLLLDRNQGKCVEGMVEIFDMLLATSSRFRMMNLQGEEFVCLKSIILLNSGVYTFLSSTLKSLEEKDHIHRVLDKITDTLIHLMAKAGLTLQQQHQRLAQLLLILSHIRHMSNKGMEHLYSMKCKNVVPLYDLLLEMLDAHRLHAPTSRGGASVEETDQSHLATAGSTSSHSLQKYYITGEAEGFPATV
Chain of Protein cereblon/Estrogen receptor (Q96SW2 whole entry, looked up): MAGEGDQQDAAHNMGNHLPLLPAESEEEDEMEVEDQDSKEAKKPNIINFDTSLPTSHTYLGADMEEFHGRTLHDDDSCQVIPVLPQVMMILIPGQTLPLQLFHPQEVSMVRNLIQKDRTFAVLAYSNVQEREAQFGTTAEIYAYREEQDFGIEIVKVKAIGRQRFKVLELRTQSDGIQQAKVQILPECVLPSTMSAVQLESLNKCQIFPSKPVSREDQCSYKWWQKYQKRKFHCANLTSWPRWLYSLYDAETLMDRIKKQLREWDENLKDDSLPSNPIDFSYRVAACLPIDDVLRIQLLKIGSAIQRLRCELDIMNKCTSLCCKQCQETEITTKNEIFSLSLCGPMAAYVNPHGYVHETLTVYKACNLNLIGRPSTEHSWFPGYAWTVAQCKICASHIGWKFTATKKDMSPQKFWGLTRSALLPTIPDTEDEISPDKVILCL

With `C[C@@H]1Cc2c(ccc3[nH]ncc23)[C@@H](c2c(F)cc(N3CCC4(CCN(C(=O)CN5Cc6cc7c(cc6C5)C(=O)N(C5CCC(=O)NC5=O)C7=O)CC4)CC3)cc2F)N1CC(F)F` (stereo partly specified) the inhibition in vivo at 30 mg/kg (MCF7 [1]) was 101%, the concentration at 72 h [2] was 162 ng/mL and the half-life [3] was 7.9 h. For the same molecule, the inhibition in vivo at 30 mg/kg (MCF7 [4]) was 42%, the Activity (MCF7 [5]) was “Active” and the Vd at 24 h [6] was 1.3 L/kg. For the same molecule, the inhibition in vivo at 30 mg/kg (MCF7 [7]) was 51%, the Activity [8] was 68% and the Activity [9] was 70%. The concentration at 72 h [10] was 3740 ng/mL, the IC50 (Cytochrome P450 3A4) was > 10 µM and the concentration at 72 h [11] was 1440 ng/mL. The concentration at 72 h [12] was 2830 ng/mL, the half-life at 1 µM [13] was > 1 h and the inhibition in vivo at 10 mg/kg (MCF7 [14]) was 38%. The Activity [15] was “Non-Toxic”, the IC50 (Cytochrome P450 2D6) was > 10 µM and the IC50 (Cytochrome P450 2C19) was > 10 µM. The Activity [16] was 73%, the inhibition in vivo at 10 mg/kg (MCF7 [17]) was 24% and the IC50 (Cytochrome P450 2C8) was > 10 µM. For the same molecule, the bioavailability at 24 h (in vivo) was 20%, the concentration at 72 h [18] was 502 ng/mL and the concentration at 72 h [19] was 80 ng/mL. For the same molecule, the concentration at 72 h [20] was 18 ng/mL and the Activity [21] was “Dose-Dependent Effect”.
